# Test results as given in ChEMBL document CHEMBL5241105, “Natural Products with Potential for Nonhormonal Male Contraception” (J Nat Prod, 2021).
# Legend:
# Rattus norvegicus [1] = test: Antifertility activity in male albino rat assessed as reduction in sertoli cells at 15 mg/kg administered daily relative to control; type: functional; parameters: scale not given: the % may be the effect or the level left
# Rattus norvegicus [2] = test: Antifertility activity in male albino rat assessed as reduction in spermatids at 15 mg/kg administered daily relative to control; type: functional; parameters: scale not given: the % may be the effect or the level left
# Rattus norvegicus [3] = test: Antifertility activity in male albino rat assessed as reduction in number of spermatids at 15 mg/kg administered daily relative to control; type: functional; parameters: scale not given: the % may be the effect or the level left
# Hamster = test: Antifertility activity in hamster assessed as decrease in egg fertilization percentage at 0.70 to 1.05 mM (reference value: 93.6 +/- 3.12 %); type: functional, Cricetinae; parameters: scale not given: the % may be the effect or the level left; conditions: dose 0.7-1.05 mM; at 0.7 to 1.05 mM
# Homo sapiens = species on record: Homo sapiens; test: Inhibition of calcium channel (unknown origin) at 2 mg/ml relative to control
# Rattus norvegicus [4] = species on record: Rattus norvegicus; test: Antifertility in male rat assessed as reduction in fertility relative to control; type: functional; parameters: scale not given: the % may be the effect or the level left
# Meriones unguiculatus = test: Antifertility activity in gerbils assessed as inhibition of spermatid production at 25 mg/kg, po (reference value: 51.2 %); type: functional; parameters: scale not given: the % may be the effect or the level left
# Oryctolagus cuniculus = test: Antifertility activity in rabbit assessed as inhibition of spermatid production at 25 mg/kg, po (reference value: 33.9 %); type: functional; parameters: scale not given: the % may be the effect or the level left
# Rattus norvegicus [5] = test: Antifertility activity in male Sprague-Dawley rat assessed as infertility at 100 microg/kg/day measured for 63 to 70 days relative to control; type: functional; conditions: dose 100 µg/kg/day; time 63-70 day
# Mus musculus [6] = species on record: Mus musculus; test: Antifertility activity in mouse assessed as reduction in testicular weight relative to control; type: functional; parameters: scale not given: the % may be the effect or the level left
# Rattus norvegicus [7] = test: Antifertility activity in rat assessed as decrease in fertility at 10 mg/kg administered daily relative to control; type: functional; parameters: scale not given: the % may be the effect or the level left
# [8] = Toxicity in oral dosed rat assessed as median lethal dose; type: organism-based; conditions: in vivo
# Rattus norvegicus [9] = species on record: Rattus norvegicus; test: Antifertility activity in Sprague-Dawley rat assessed as sperm with normal morphology (reference value: 77.2 +/- 16.9%); type: functional
# Rattus norvegicus [10] = species on record: Rattus norvegicus; test: Antifertility activity in Sprague-Dawley rat assessed as reduction in cauda epididymal sperm count (reference value: 41.5 +/- 19.3 10^6/ml); type: functional
# Rattus norvegicus [11] = species on record: Rattus norvegicus; test: Antifertility activity in Sprague-Dawley rat assessed as motile sperm percentage (reference value: 85.7 +/- 16.9%); type: functional
# Mus musculus [12] = species on record: Mus musculus; test: Antifertility against male C57BL/6J mouse assessed as infertility; type: functional, organism-based
# [13] = Toxicity in mouse assessed as median lethal dose; conditions: in vivo
# Mus musculus [14] = test: Antifertility activity in C57BL/6J male mouse assessed as head bend back deformation at 0.8 mg/kg administered via oral gavage for 4 weeks relative to control; type: functional
# [15] = Toxicity in rat assessed as median lethal dose; conditions: in vivo
# Mus musculus [16] = test: Antifertility activity in C57BL/6J male mouse assessed as reduction in forward sperm motility at 0.8 mg/kg administered via oral gavage for 4 weeks relative to control; type: functional; parameters: scale not given: the % may be the effect or the level left
# Rattus norvegicus [17] = species on record: Rattus norvegicus; test: Antifertility activity in albino rat assessed as inhibition of motility (reference value: 30.75 %); type: functional; parameters: scale not given: the % may be the effect or the level left
smiles,measurement,setting,value
COC(=O)C1=CO[C@@H](O[C@@H]2O[C@H](CO)[C@@H](O)[C@H](O)[C@H]2O)[C@H]2[C@@H]1C=C[C@@]21C=C([C@H](C)O)C(=O)O1 [PLUMIERIDE],Activity,Rattus norvegicus [1],29%
same,Activity,Rattus norvegicus [2],59%
same,Activity,Rattus norvegicus [3],87%
O=C(/C=C/C=C/c1ccc2c(c1)OCO2)N1CCCCC1 [PIPERINE],Activity,Hamster,3.89%
Oc1cc(O)c2c(c1)O[C@H](c1ccc(O)c(O)c1)[C@H](O)C2,inhibition,Homo sapiens,53%
CC1(C)C[C@H]2C3=CC[C@@H]4[C@@]5(C)CC[C@H](O[C@@H]6O[C@H](CO[C@@H]7OC[C@@H](O)[C@H](O)[C@H]7O[C@@H]7O[C@H](CO)[C@@H](O)[C@H](O)[C@H]7O)[C@@H](O)[C@H](O)[C@H]6O)C(C)(C)[C@@H]5CC[C@@]4(C)[C@]3(C)C[C@@H](O)[C@@]23C[C@@H]1OC3=O,Activity,Rattus norvegicus [4],100%
C[C@@H]1C[C@H](O)[C@]2(O)O[C@@H]3C[C@@]4(C=O)[C@@H](CC[C@@H]5[C@@H]4CC[C@]4(C)[C@@H](C6=CC(=O)OC6)CC[C@]54O)C[C@H]3O[C@@H]2O1 [CALOTROPIN],Activity,Meriones unguiculatus,65.2%
same,Activity,Oryctolagus cuniculus,94%
CC(C)[C@]12O[C@H]1[C@@H]1O[C@]13[C@]1(O[C@H]1C[C@H]1C4=C(CC[C@@]13C)C(=O)OC4)[C@@H]2O [TRIPTOLIDE],Activity,Rattus norvegicus [5],100%
CC1(C)C[C@H]2C3=CC[C@@H]4[C@@]5(C)CC[C@H](O[C@@H]6O[C@H](CO[C@@H]7OC[C@@H](O)[C@H](O)[C@H]7O[C@@H]7OC[C@@H](O)[C@H](O)[C@H]7O)[C@@H](O)[C@H](O)[C@H]6O)C(C)(C)[C@@H]5CC[C@@]4(C)[C@]3(C)C[C@@H](O)[C@@]23C[C@@H]1OC3=O,Activity,Rattus norvegicus [4],100%
CC1(C)C[C@H]2C3=CC[C@@H]4[C@@]5(C)CC[C@H](O[C@@H]6O[C@H](CO[C@@H]7OC[C@@H](O)[C@H](O)[C@H]7O[C@@H]7O[C@H](CO)[C@@H](O)[C@H](O)[C@H]7O)[C@@H](O)[C@H](O)[C@H]6O[C@@H]6O[C@H](CO)[C@@H](O)[C@H](O)[C@H]6O)C(C)(C)[C@@H]5CC[C@@]4(C)[C@]3(C)C[C@@H](O)[C@@]23C[C@@H]1OC3=O,Activity,Rattus norvegicus [4],100%
CC1(C)CC[C@]2(C(=O)O)CC[C@]3(C)C(=CC[C@@H]4[C@@]5(C)CC[C@H](O)C(C)(C)[C@@H]5CC[C@]43C)[C@@H]2C1 [OLEANOLIC_ACID],Activity,Mus musculus [6],60%
C=C(C)[C@@H]1CC[C@]2(C)CC[C@]3(C)[C@H](CC[C@@H]4[C@@]5(C)CC[C@H](O)C(C)(C)[C@@H]5CC[C@]43C)[C@@H]12 [LUPEOL],Activity,Rattus norvegicus [7],100%
C=C1CC/C=C(/C)CC[C@@H]2[C@@H]1CC2(C)C [CARYOPHYLLENE],LD50,[8],> 5000 mg/kg
same,Activity,Rattus norvegicus [9],36.2%
same,Activity,Rattus norvegicus [10],20.8 10^6/ml
same,Activity,Rattus norvegicus [11],57.4%
CC(C)[C@]12O[C@H]1[C@@H]1O[C@@]13[C@@]1(C)CCC4=C(COC4=O)[C@@H]1C[C@@H]1O[C@@]13C2=O [TRIPTONIDE],EC50,Mus musculus [12],0.9 mg/kg
same,LD50,[13],300 mg/kg
same,Activity,Mus musculus [14],100%
same,LD50,[15],980 mg/kg
same,Activity,Mus musculus [16],100%
CCCCCCCCCCCC1=C(O)C(=O)C=C(O)C1=O [EMBELIN],Activity,Rattus norvegicus [17],9.5%
